In PubChem BioAssay (NCI) one finds TGI and GI50 data, which are given here for 16 molecules.

Test systems include RXF 393 renal; PC-3 prostate; SF-295 CNS; SF-539 CNS; U251 CNS; MOLT-4 leukemia; SNB-19 CNS; ACHN renal; HT29 colon; 786-0 renal.
Experiment in all cases: NCI anticancer screen, dose series, 48 h

SMILES strings stand for the structures. Where “and” joins values, the source holds several entries; their conditions need not be identical. Equal values may be shown once.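 These data come from cells grown in 96-well plates and exposed to compound for 48 hours at five concentrations. Abbreviation: GI50, concentration required for 50% inhibition of growth. At the TGI there is no net growth.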

Take `CC1(C)COCN1COC1CCCCC1`: the TGI in the assay on RXF 393 renal was over 100 µM; in the assay with PC-3 prostate it was over 100 µM; in the assay with SF-295 CNS it was over 100 µM; with SF-539 CNS it was over 100 µM; in the assay with U251 CNS, over 100 µM; in the assay on MOLT-4 leukemia, 83.9 µM. Also, the TGI with SNB-19 CNS, in the assay with ACHN renal, in the assay with HT29 colon and with 786-0 renal was over 100 µM throughout.
Turning to `O=C1C(Cl)=C(Oc2ccc([N+](=O)[O-])cc2)C(=O)c2c(O)ccc(O)c21`, the TGI was 52.5 µM with RXF 393 renal; over 100 µM in the assay on PC-3 prostate; over 100 µM in the assay with SF-295 CNS; over 100 µM in the assay on SF-539 CNS; over 100 µM in the assay with U251 CNS; 25.2 µM with MOLT-4 leukemia. Further, the TGI in the assay on SNB-19 CNS was over 100 µM; in the assay on ACHN renal, over 100 µM; in the assay on HT29 colon, over 83.1 µM; in the assay with 786-0 renal, over 100 µM.
Consider `N#Cc1ccccc1NC(=O)/C(=N\NC(=O)c1ccncc1)C(c1cnc2ccc([N+](=O)[O-])cc2n1)[N+](=O)[O-]` (stereo not drawn), for which the TGI in the assay on RXF 393 renal, in the assay with PC-3 prostate, in the assay on SF-295 CNS, with SF-539 CNS, with U251 CNS and in the assay with MOLT-4 leukemia was over 100 µM throughout. For the same molecule, the TGI with ACHN renal, in the assay on HT29 colon and in the assay on 786-0 renal was over 100 µM throughout.
As to `Nc1ccccc1/C=C\c1ccccc1`, the TGI with RXF 393 renal, in the assay with PC-3 prostate, with SF-295 CNS, in the assay on SF-539 CNS, with U251 CNS and with MOLT-4 leukemia was over 100 µM each time. The TGI in the assay with SNB-19 CNS, in the assay on ACHN renal, in the assay with HT29 colon and in the assay on 786-0 renal was over 100 µM throughout.
For the molecule `CN(NC(=O)CC(=O)NN(C)C(=S)c1ccccc1)C(=S)c1ccccc1`, the GI50 with RXF 393 renal was over 61.1 µM; in the assay with PC-3 prostate, 51.5 µM; in the assay with U251 CNS it was 49.8 µM; in the assay on ACHN renal, 73.9 µM; with 786-0 renal, 56.3 µM. Moreover, the TGI with RXF 393 renal, with PC-3 prostate, in the assay with SF-295 CNS, with SF-539 CNS, in the assay with U251 CNS and in the assay on SNB-19 CNS was over 100 µM in each case. Besides, the TGI with ACHN renal, in the assay with HT29 colon and in the assay on 786-0 renal was over 100 µM each time.
Regarding `C=C1C(=O)O[C@@H]2C1C[C@@H](O)/C(C)=C/C/C=C(\C)CCC[C@H](C)[C@H]2OC(C)=O` (stereo partly drawn), the GI50 is 19.3 µM in the assay with RXF 393 renal; 21.4 µM in the assay on PC-3 prostate; over 100 µM in the assay on SF-295 CNS; 20.4 µM with SF-539 CNS; 23.8 µM in the assay on U251 CNS; 61 µM in the assay on SNB-19 CNS. For the same molecule, the GI50 is 21.3 µM in the assay on ACHN renal, 40 µM in the assay with HT29 colon and 18.7 µM with 786-0 renal. For the same molecule, the TGI with RXF 393 renal was 50.2 µM; in the assay on PC-3 prostate, 51.3 µM; in the assay on SF-295 CNS it was over 100 µM; in the assay with SF-539 CNS it was 39.9 µM; in the assay with U251 CNS, 52.4 µM; in the assay on SNB-19 CNS, over 100 µM. Moreover, the TGI in the assay on ACHN renal was 42.6 µM; with HT29 colon it was over 100 µM; with 786-0 renal, 34.3 µM.
Turning to `C=C1C[C@@H]2C/C=C/C(=O)C/C(C)=C\C=C\C(=O)O[C@H](C=O)C/C(C)=C/[C@H](C1)O2`, the GI50 in the assay with PC-3 prostate is 0.354 µM; with SF-295 CNS, 3.26 µM; in the assay on SF-539 CNS it was 0.328 µM; in the assay with U251 CNS it was 0.711 µM; with MOLT-4 leukemia, 2.72 µM; in the assay on SNB-19 CNS it was 4.34 µM. Besides, the GI50 in the assay on ACHN renal was 6.64 µM; with HT29 colon it was 0.281 µM; in the assay on 786-0 renal, 0.783 µM. Moreover, the TGI in the assay with PC-3 prostate stood at 21.4 µM; in the assay on SF-295 CNS, 43.2 µM; in the assay on SF-539 CNS, 1.64 µM; in the assay on U251 CNS, 14.1 µM; in the assay with MOLT-4 leukemia it was 13.7 µM; with SNB-19 CNS, 24.8 µM. Also, the TGI in the assay on ACHN renal was found to be 21.8 µM; in the assay on HT29 colon, 12.6 µM; in the assay on 786-0 renal it was 18.3 µM.
`COc1ccccc1C1=C2C(=O)N(C)C(c3ccccc3OC)=C2C(=O)N1C`: the TGI with PC-3 prostate was over 100 µM; in the assay on SF-295 CNS it was over 100 µM; with SF-539 CNS, 64.2 µM; in the assay on U251 CNS, over 100 µM; with MOLT-4 leukemia it was over 100 µM; in the assay on SNB-19 CNS it was 75.4 µM. In addition, the TGI in the assay with ACHN renal is over 100 µM; in the assay with HT29 colon, over 100 µM; in the assay on 786-0 renal, 85.5 µM.
With `CCCCCCCCCNCCCCCCCCC`, the GI50 in the assay on RXF 393 renal is 1.81 µM; with PC-3 prostate, 2.03 µM; in the assay with SF-295 CNS it was 1.74 µM; in the assay with SF-539 CNS, 1.9 µM; in the assay on U251 CNS, 1.71 µM; with SNB-19 CNS it was 2.78 µM. In addition, the GI50 is 1.76 µM in the assay with ACHN renal, 1.27 µM with HT29 colon and 1.98 µM in the assay with 786-0 renal. Further, the TGI was found to be 3.25 µM in the assay with RXF 393 renal; 4.7 µM with PC-3 prostate; 3.29 µM with SF-295 CNS; 3.4 µM in the assay with SF-539 CNS; 3.15 µM with U251 CNS; 9.83 µM in the assay on SNB-19 CNS. The figures for the TGI in the assay on ACHN renal, in the assay on HT29 colon and in the assay on 786-0 renal were 3.14 µM, 2.88 µM and 3.43 µM, respectively.
For `O=C(/C=C/C=C/c1ccccc1)CCc1ccccc1`, the TGI in the assay with RXF 393 renal is over 100 µM; in the assay with PC-3 prostate, over 100 µM; in the assay with SF-295 CNS, over 100 µM; with SF-539 CNS, over 100 µM; in the assay with U251 CNS it was over 100 µM; in the assay with MOLT-4 leukemia, 56.1 µM. The TGI in the assay with SNB-19 CNS, in the assay on HT29 colon and in the assay on 786-0 renal was over 100 µM throughout.
Take `FC(F)(F)c1cccc(COCCN2CCN(Cc3cccc(C(F)(F)F)c3)CC2)c1`: the TGI in the assay with PC-3 prostate amounted to 21.7 µM; in the assay on SF-295 CNS it was 37.5 µM; with SF-539 CNS, 39 µM; in the assay with U251 CNS it was 34.5 µM; in the assay on MOLT-4 leukemia it was 41.9 µM; with SNB-19 CNS, 29.4 µM. For the same molecule, the TGI with ACHN renal was 29.1 µM; with HT29 colon, 44.6 µM; with 786-0 renal, 29.5 µM.
As for `N#CC1=C(N)OC2=C(COc3ccc(F)cc32)C1c1ccc(Cl)cc1` (stereo not drawn), the GI50 was over 100 µM in the assay on RXF 393 renal; 32.3 µM in the assay with PC-3 prostate; 19.6 µM in the assay on SF-295 CNS; 29.5 µM in the assay with SF-539 CNS; 32.6 µM in the assay on U251 CNS; 44.7 µM in the assay with MOLT-4 leukemia. Besides, the GI50 in the assay with ACHN renal was 22.9 µM; in the assay on HT29 colon it was 50.4 µM; in the assay on 786-0 renal it was 32.3 µM. The TGI in the assay on RXF 393 renal is over 100 µM; in the assay with PC-3 prostate, over 100 µM; with SF-295 CNS, 78.3 µM; in the assay on SF-539 CNS it was 81.6 µM; with U251 CNS it was over 100 µM; in the assay with MOLT-4 leukemia it was over 100 µM. Also, the TGI with ACHN renal was 93.5 µM; in the assay with HT29 colon, over 100 µM; with 786-0 renal, over 100 µM.
For `COc1ccc(/C=C\c2cc(OC)c(OC)c(OC)c2)cc1OC(=O)C(N)CCC(=O)O` (stereo not drawn), the GI50 in the assay with RXF 393 renal is 4.67e-05 µM; with PC-3 prostate it was 0.00125 µM and 0.000357 µM; with SF-539 CNS, 0.000814 µM; with U251 CNS, 0.000543 µM and 0.000132 µM; in the assay on MOLT-4 leukemia, 0.00244 µM; in the assay with SNB-19 CNS, 0.000828 µM and 0.000281 µM and < 0.0001 µM. Besides, the GI50 with 786-0 renal was 0.00706 µM. Moreover, the TGI with SF-539 CNS is 0.000166 µM; in the assay with SNB-19 CNS, over 100 µM; in the assay with HT29 colon, > 37.9 µM and 46.2 µM.
For `c1cc2c(cc1C(N1CCNCC1)N1CCNCC1)OCO2`, the TGI in the assay with RXF 393 renal, with PC-3 prostate, in the assay on SF-295 CNS, in the assay on SF-539 CNS, in the assay on U251 CNS and in the assay with SNB-19 CNS was over 100 µM each time. Besides, the TGI in the assay on ACHN renal, in the assay on HT29 colon and with 786-0 renal was over 100 µM throughout.
For `COc1ccc2nc(-c3ccccc3)cc(Nc3ccc(C(C)=O)cc3)c2c1`, the GI50 in the assay on PC-3 prostate is 1.16 µM; with SF-539 CNS, 2.37 µM; with U251 CNS, 2.46 µM; in the assay with MOLT-4 leukemia, 1.98 µM; with SNB-19 CNS, 5.74 µM; in the assay with ACHN renal it was 2.54 µM. Also, the GI50 in the assay with HT29 colon was 9.89 µM; in the assay on 786-0 renal, 1.31 µM. In addition, the TGI in the assay with PC-3 prostate stood at 4.63 µM; in the assay with SF-295 CNS it was 1.57 µM; in the assay on SF-539 CNS it was 4.21 µM; in the assay on U251 CNS it was 10.8 µM; with MOLT-4 leukemia it was 4.93 µM; in the assay on SNB-19 CNS, 26.6 µM. Moreover, the TGI in the assay with ACHN renal is 9.79 µM; in the assay with HT29 colon, over 100 µM; in the assay with 786-0 renal, 3.54 µM.
In the case of `COc1ccc2c(c1)nc(N)c1c3cc(OC)c(OC)cc3cn21`, the TGI was 16 µM with PC-3 prostate; 16.2 µM with SF-295 CNS; 1.69 µM in the assay with SF-539 CNS; 14.6 µM with U251 CNS; 12.6 µM in the assay with MOLT-4 leukemia; 19.1 µM with SNB-19 CNS. Also, the TGI in the assay on ACHN renal worked out at 16.3 µM; with HT29 colon, 11.2 µM; in the assay with 786-0 renal, 11.9 µM. Moreover, the GI50 is 0.0697 µM in the assay on SF-539 CNS; 0.118 µM in the assay on U251 CNS; 0.281 µM in the assay with MOLT-4 leukemia; 0.0967 µM with SNB-19 CNS; under 0.01 µM with ACHN renal; 0.205 µM with 786-0 renal.
